{"source": "patent US7732444B2", "about": "“2-(amino-substituted)-4-aryl pyrimidines and related compounds useful for treating inflammatory diseases” (Millennium Pharmaceuticals, Inc., priority 2004, dated 2010)"}
{"molecular_target": "T1, full length PKC θ (Homo sapiens, UniProt Q04759)", "T1 construct": "15 μL of full length PKC θ (Panvera Corporation); purchased Panvera Corporation", "T1 sequence (Q04759 whole entry, canonical isoform)": "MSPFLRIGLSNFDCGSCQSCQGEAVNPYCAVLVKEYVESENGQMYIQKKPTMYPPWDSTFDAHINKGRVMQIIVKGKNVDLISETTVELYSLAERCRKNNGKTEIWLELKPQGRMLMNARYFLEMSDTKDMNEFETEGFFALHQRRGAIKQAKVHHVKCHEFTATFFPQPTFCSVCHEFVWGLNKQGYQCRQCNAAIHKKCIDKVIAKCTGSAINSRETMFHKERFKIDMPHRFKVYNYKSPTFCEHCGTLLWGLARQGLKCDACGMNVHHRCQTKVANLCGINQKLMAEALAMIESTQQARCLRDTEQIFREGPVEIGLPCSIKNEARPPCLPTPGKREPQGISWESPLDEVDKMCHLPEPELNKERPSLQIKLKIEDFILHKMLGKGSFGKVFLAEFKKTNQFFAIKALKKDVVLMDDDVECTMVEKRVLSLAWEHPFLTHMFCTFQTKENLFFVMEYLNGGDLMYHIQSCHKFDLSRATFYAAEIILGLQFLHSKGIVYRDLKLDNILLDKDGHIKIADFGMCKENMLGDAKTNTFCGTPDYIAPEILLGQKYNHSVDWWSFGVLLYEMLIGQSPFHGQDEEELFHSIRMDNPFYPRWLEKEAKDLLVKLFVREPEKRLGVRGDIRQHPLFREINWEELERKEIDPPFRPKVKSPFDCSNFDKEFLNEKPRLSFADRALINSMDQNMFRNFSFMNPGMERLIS", "assay": "PKC-theta isoform inhibition assay (HTRF, 384 well plate)", "type": "biochemical", "conditions": "full length PKC θ at 27 pM, peptide substrate 300 nM + 3 μM ATP, HTRF readout", "protocol": "An in vitro assay for detecting and measuring inhibition activity against PKC-theta isoform by candidate pharmacological agents is useful for evaluating and selecting a compound that modulates PKC-theta isoform. An IC50 value can be calculated after running the assay. Following is an assay protocol for measuring PKC-theta isoform.\nPer well of a 384 well plate, compounds at various concentrations in 5 μL of 20% DMSO were pre-incubated for about 30 minutes at about 25° C. with 15 μL of full length PKC θ (Panvera Corporation) at 27 pM in an assay buffer (25 mM Hepes, pH 7.5, 5 mM DTT, 10 mM MgCl2, 10 mM 2-glycerophosphate, 12.5 μg/mL 1,2-dioleoyl-rac-glycerol, 10 μg/mL L-α-phosphatidyl-L-serine, 0.1% Bovine Serum Albumin). 10 μL of peptide substrate (biotin-(CH2)6— RFARKGSLRQKNV —CONH2) at 300 nM+3 μM ATP were added to each well and incubated for about 1 hour before quenching with 10 μL of 250 mM EDTA. 40 μL of detection buffer (25 mM Hepes, pH 7.5, 100 mM KF, 0.1% Bovine Serum Albumin, 0.01% Tween20) containing 2 nM anti-phospho antibody 2B9 (MBL International) labeled with europium cryptate (Cis-Bio International) and 0.0064 μg/mL streptavidin-allophycocyanin (Prozyme) was added to each well and incubated for two hours. Signal was then read on a Discovery HTRF (Packard).", "units": {"IC50": "nM"}}
{"smiles": "Oc1ccc(CCNc2nccc(-c3cccc(NC4CCNCC4)c3)n2)cc1Br", "note": "[Compound 50, 2-Bromo-4-(2-{4-[3-(piperidin-4-ylamino)-phenyl]-pyrimidin-2-ylamino}-ethyl)-phenol]", "IC50": "< 100"}
{"smiles": "Oc1ccc(CCNc2nccc(-c3cccc(NC4CCCNC4)c3)n2)cc1", "note": "(centres unmarked) [Compound 53, 4-(2-{4-[3-(Piperidin-3-ylamino)-phenyl]-pyrimidin-2-ylamino}-ethyl)-phenol]", "IC50": "< 100"}
{"smiles": "Oc1ccc(CCNc2nccc(-c3cccc(NC4CCCNC4)c3)n2)cc1Cl", "note": "(centres unmarked) [Compound 54, 2-Chloro-4-(2-{4-[3-(piperidin-3-ylamino)-phenyl]-pyrimidin-2-ylamino}-ethyl)-phenol]", "IC50": "< 100"}
{"smiles": "Oc1ccc(CCNc2nccc(-c3cccc(NC4CCNC4)c3)n2)cc1", "note": "(centres unmarked) [Compound 55, 4-(2-{4-[3-(Pyrrolidin-3-ylamino)-phenyl]-pyrimidin-2-ylamino}-ethyl)-phenol]", "IC50": "< 100"}
{"smiles": "CS(=O)(=O)N(CCCNC(=O)c1ccccn1)Cc1cccc(-c2ccnc(NCCc3ccc(O)cc3)n2)c1", "note": "[Compound 60, Pyridine-2-carboxylic acid {3-[(3-{2-[2-(4-hydroxy-phenyl)-ethylamino]-pyrimidin-4-yl}-benzyl)-methanesulfonyl-amino]-propyl}-amide]", "IC50": "< 100"}
{"smiles": "Cc1ncccc1C(=O)NCCCN(Cc1cccc(-c2ccnc(NCCc3ccc(O)cc3)n2)c1)S(C)(=O)=O", "note": "[Compound 62]", "IC50": "< 100"}
{"smiles": "CS(=O)(=O)N(CCCNS(=O)(=O)Cc1ccccc1)Cc1cccc(-c2ccnc(NCCc3ccc(O)cc3)n2)c1", "note": "[Compound 64, N-{3-[(3-{2-[2-(4-Hydroxy-phenyl)-ethylamino]-pyrimidin-4-yl}-benzyl)-methanesulfonyl-amino]-propyl}-C-phenyl-methanesulfonamide]", "IC50": "< 100"}
{"smiles": "CS(=O)(=O)N(CCCNS(=O)(=O)c1ccccc1)Cc1cccc(-c2ccnc(NCCc3ccc(O)cc3)n2)c1", "note": "[Compound 65, N-{3-[(3-{2-[2-(4-Hydroxy-phenyl)-ethylamino]-pyrimidin-4-yl}-benzyl)-methanesulfonyl-amino]-propyl}-benzenesulfonamide]", "IC50": "< 100"}
{"smiles": "O=C(NCC1CCNC1)c1cccc(-c2ccnc(NCCc3ccc(O)cc3)n2)c1", "note": "(centres unmarked) [Compound 67, 3-{2-[2-(4-Hydroxy-phenyl)-ethylamino]-pyrimidin-4-yl}-N-pyrrolidin-3-ylmethyl-benzamide]", "IC50": "< 100"}
{"smiles": "NCCCNC(=O)c1cccc(-c2ccnc(NCCc3ccc(O)cc3)n2)c1", "note": "[Compound 68, N-(3-Amino-propyl)-3-{2-[2-(4-hydroxy-phenyl)-ethylamino]-pyrimidin-4-yl}-benzamide]", "IC50": "< 100"}
{"smiles": "CCN(Cc1cccnc1)c1cccc(-c2ccnc(NCCc3ccc(O)cc3)n2)c1", "note": "[Compound 80, 4-(2-{4-[3-(Ethyl-pyridin-3-ylmethyl-amino)-phenyl]-pyrimidin-2-ylamino}-ethyl)-phenol]", "IC50": "< 100"}
{"smiles": "CN1CCN(Cc2cccc(-c3ccnc(NCCc4ccc(O)cc4)n3)c2)CC1", "note": "[Compound 81, 4-(2-{4-[3-(4-Methyl-piperazin-1-ylmethyl)-phenyl]-pyrimidin-2-ylamino}-ethyl)-phenol]", "IC50": "< 100"}
{"smiles": "CC(c1cccc(-c2ccnc(NCCc3ccc(O)cc3)n2)c1)N(CCCN)S(C)(=O)=O", "note": "(centres unmarked) [Compound 104]", "IC50": "< 100"}
{"smiles": "COc1cc(CCNc2nccc(-c3cccc(OC(C)C)c3)n2)ccc1O", "note": "[Compound 107, 4-{2-[4-(3-Isopropoxy-phenyl)-pyrimidin-2-ylamino]-ethyl}-2-methoxy-phenol]", "IC50": "< 100"}
{"smiles": "CC(=O)N(Cc1cccc(-c2ccnc(NCCc3ccc(O)cc3)n2)c1)CC1CCNC1", "note": "(centres unmarked) [Compound 120, N-(3-{2-[2-(4-Hydroxy-phenyl)-ethylamino]-pyrimidin-4-yl}-benzyl)-N-pyrrolidin-3-ylmethyl-acetamide]", "IC50": "< 100"}
{"smiles": "CC(O)c1cccc(-c2ccnc(NCCc3ccc(O)cc3)n2)c1", "note": "(centres unmarked) [Compound 121, 4-(2-{4-[3-(1-Hydroxy-ethyl)-phenyl]-pyrimidin-2-ylamino}-ethyl)-phenol]", "IC50": "< 100"}
{"smiles": "CCN(CC)CCCNCc1cccc(-c2ccnc(NCCc3ccc(O)cc3)n2)c1", "note": "[Compound 125, 4-[2-(4-{3-[(3-Diethylamino-propylamino)-methyl]-phenyl}-pyrimidin-2-ylamino)-ethyl]-phenol]", "IC50": "< 100"}
{"smiles": "CCN(CC)CCCN(CC)Cc1cccc(-c2ccnc(NCCc3ccc(O)cc3)n2)c1", "note": "[Compound 126]", "IC50": "< 100"}
{"smiles": "C[C@H]1CNCCN1Cc1cccc(-c2ccnc(NCCc3cccc(F)c3)n2)c1", "note": "[Compound 130, [2-(3-Fluoro-phenyl)-ethyl]-{4-[3-(2-(S)-methyl-piperazin-1-ylmethyl)-phenyl]-pyrimidin-2-yl}-amine]", "IC50": "< 100"}
{"smiles": "CCNCc1cccc(-c2ccnc(NCCc3ccc(O)cc3)n2)c1", "note": "[Compound 131, 4-{2-[4-(3-Ethylaminomethyl-phenyl)-pyrimidin-2-ylamino]-ethyl}-phenol]", "IC50": "< 100"}
{"smiles": "CC(C)NCc1cccc(-c2ccnc(NCCc3ccc(O)c(Cl)c3)n2)c1", "note": "[Compound 132, 2-Chloro-4-(2-{4-[3-(isopropylamino-methyl)-phenyl]-pyrimidin-2-ylamino}-ethyl)-phenol]", "IC50": "< 100"}
{"smiles": "CS(=O)(=O)N(Cc1cccc(-c2nc(NCCc3ccc(O)cc3)ncc2F)c1)C1CCNCC1", "note": "[Compound 134, N-(3-{5-Fluoro-2-[2-(4-hydroxy-phenyl)-ethylamino]-pyrimidin-4-yl}-benzyl)-N-piperidin-4-yl-methanesulfonamide]", "IC50": "< 100"}
{"smiles": "CS(=O)(=O)N(Cc1cccc(-c2nc(NCCc3ccc(O)c(Cl)c3)ncc2F)c1)C1CCNCC1", "note": "[Compound 142, N-(3-{2-[2-(3-Chloro-4-hydroxy-phenyl)-ethylamino]-5-fluoro-pyrimidin-4-yl}-benzyl)-N-piperidin-4-yl-methanesulfonamide]", "IC50": "< 100"}
{"smiles": "CCN(CCCN)Cc1cccc(-c2nc(NCCc3ccc(O)c(F)c3)ncc2F)c1", "note": "[Compound 143, 4-{2-[4-(3-{[(3-Amino-propyl)-ethyl-amino]-methyl}-phenyl)-5-fluoro-pyrimidin-2-ylamino]-ethyl}-2-fluoro-phenol]", "IC50": "< 100"}
{"smiles": "[2H]C([2H])(CNc1nccc(-c2cccc(CN3CCNC[C@@H]3C)c2)n1)c1cc(F)cc(F)c1", "note": "[Compound 200, [2-(3,5-Difluoro-phenyl)-2,2 dideuteroethyl]-{4-[3-(2(S)-methyl-piperazin-1-ylmethyl)-phenyl]-pyrimidin-2-yl}-amine]", "IC50": "< 100"}
{"smiles": "CC(C)(C)NCc1cccc(-c2ccnc(NCCc3ccc(O)c(Cl)c3)n2)c1", "note": "[Compound 218, 4-(2-{4-[3-(tert-Butylamino-methyl)-phenyl]-pyrimidin-2ylamino}-ethyl)-2-chloro-phenol]", "IC50": "< 100"}
{"smiles": "C[C@H]1CNCC[C@H]1NCc1cccc(-c2ccnc(NCCc3ccc(O)cc3)n2)c1", "note": "[Compound 249, 4-[2-(4-{3-[(3(S)-Methyl-piperidin-4(R)-ylamino)-methyl]-phenyl}-pyrimidin-2-ylamino)-ethyl]-phenol]", "IC50": "< 100"}
{"smiles": "NC(=O)C1CNCCN1Cc1cccc(-c2ccnc(NCCc3ccc(O)cc3)n2)c1", "note": "(centres unmarked) [Compound 254, 1-(3-{2-[2-(4-Hydroxy-phenyl)-ethylamino]-pyrimidin-4-yl}-benzyl)-piperazine-2-carboxylic acid amide]", "IC50": "< 100"}
{"smiles": "Oc1ccc(CCNc2nccc(-c3cccc(CN4CC5CC4CN5)c3)n2)cc1Cl", "note": "(centres unmarked) [Compound 265, 2-Chloro-4-(2-{4-[3-(2,5-diaza-bicyclo[2.2.1]hept-2-ylmethyl)-phenyl]-pyrimidin-2-ylamino}-ethyl)-phenol]", "IC50": "< 100"}
{"smiles": "Oc1ccc(CCNc2nccc(-c3cccc(CN4CC5CC4CN5)c3)n2)cc1", "note": "(centres unmarked) [Compound 266, 4-(2-{4-[3-(2,5-Diaza-bicyclo[2.2.1]hept-2-ylmethyl)-phenyl]-pyrimidin-2-ylamino}-ethyl)-phenol]", "IC50": "< 100"}
{"smiles": "C[C@H]1CNCCN1S(=O)(=O)c1cccc(-c2ccnc(NCCc3ccc(O)c(Cl)c3)n2)c1", "note": "[Compound 278]", "IC50": "< 100"}
{"smiles": "Cc1c(CN2CCNC[C@@H]2C)cccc1-c1ccnc(NCCc2ccc(O)cc2)n1", "note": "[Compound 284, 4-(2-(4-(2-methyl-3-(((S)-2-methylpiperazin-1-yl)methyl)phenyl)pyrimidin-2-ylamino)ethyl)phenol]", "IC50": "< 100"}
{"smiles": "C[C@H]1CNCCN1Cc1cc(-c2ccnc(NCCc3ccc(O)cc3)n2)ccc1F", "note": "[Compound 286, 4-(2-(4-(4-fluoro-3-(((S)-2-methylpiperazin-1-yl)methyl)phenyl)pyrimidin-2-ylamino)ethyl)phenol]", "IC50": "< 100"}
{"smiles": "CCN(CCC1CCCCN1)Cc1cccc(-c2ccnc(NCCc3ccc(O)c(Cl)c3)n2)c1", "note": "(centres unmarked) [Compound 289, 2-chloro-4-(2-(4-(3-((ethyl(2-(piperidin-2-yl)ethyl)amino)methyl)phenyl)pyrimidin-2-ylamino)ethyl)phenol]", "IC50": "< 100"}
{"smiles": "Oc1ccc(CCNc2nccc(-c3cccc(CNCCc4ccccn4)c3)n2)cc1Cl", "note": "[Compound 292, 2-chloro-4-(2-(4-(3-((2-(pyridinyl-2-yl)ethylamino)methyl)phenyl)pyrimidin-2-ylamino)ethyl)phenol]", "IC50": "< 100"}
